Results from the supplement of paper PMC11208160.

Experiment: recombinant barcode read abundance after kanamycin selection (control-corrected) (log10(CPM+1)); higher = more efficient recombination; sequences stand for … in AGTGCAGAGAAAATCGGCCAGTTTTCTCTGCCTGCAGTCCGCATGCCGT…AGATTTATGCAGCGGACTGCCTTTCTCCCAAAGTGATAAACCGGACAGTATCATGGACCGGTTTTCCCGGTAATCCGTATTTGCAAGGTTGGTTTCACT; site = the 11-nt target
Summary of the method: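 Pooled oligos, each joining a target to an IS621 bridge RNA target-binding loop, were cloned and co-electroporated with a donor plasmid into E. coli. Selective plates carried chloramphenicol/ampicillin/kanamycin and 0.1 mM IPTG, while chloramphenicol/ampicillin LB agar served as control, with two replicates of each. Recombination efficiency rests on averaged, control-corrected counts per million of barcodes at recombinant junctions, shown as log10(CPM+1).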
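Note: IS621 recombinase and bridge RNA in Escherichia coli cells.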

Question: For “ATTGGATCTTGGGTTCTAACCTGTTGCCT (site ATTGGATCTAG)”, which “recombinant barcode read abundance (log10)” value is on record?
Answer: 0.391

Question: For “ATTGGATCTTGGGTTCTAACCTGTTGCCT (site ATTGGCTCTAG)”, which “recombinant barcode read abundance (log10)” value is on record?
Answer: 0.0247

Question: With “ATTGGATCTTGGGTTCTAACCTGTTGCCT (site ATTGGGTCTAG)” as the sequence, how does the “recombinant barcode read abundance (log10)” value read?
Answer: 0.0971

Question: With “ATTGGATCTTGGGTTCTAACCTGTTGCCT (site ATTGGTTCTAG)” as the sequence, how does the “recombinant barcode read abundance (log10)” value read?
Answer: 0.205

Question: For “ATTTCCACTTGGGTTCTAACCTGTTGCCT (site AAGTCCACTAG)”, which “recombinant barcode read abundance (log10)” value is on record?
Answer: 0.176

Question: For “ATTTCCACTTGGGTTCTAACCTGTTGCCT (site ATTTCCACTAG)”, which “recombinant barcode read abundance (log10)” value is on record?
Answer: 0.433

Question: For “ATTTGCCCTTGGGTTCTAACCTGTTGCCT (site AATTGCCCTAG)”, which “recombinant barcode read abundance (log10)” value is on record?
Answer: 0.222

Question: For “ATTTGCCCTTGGGTTCTAACCTGTTGCCT (site ACTTGCCCTAG)”, which “recombinant barcode read abundance (log10)” value is on record?
Answer: 0.0987

Question: Which “recombinant barcode read abundance (log10)” value does the source give for “ATTTGCCCTTGGGTTCTAACCTGTTGCCT (site AGTTGCCCTAG)” here?
Answer: 0.0335

Question: Which “recombinant barcode read abundance (log10)” value does the source give for “ATTTGCCCTTGGGTTCTAACCTGTTGCCT (site ATTTGCCCTAG)” here?
Answer: 0.122

Question: Which “recombinant barcode read abundance (log10)” value does the source give for “CAAAACTCTTGGGTTCTAACCTGTTGCTT (site CAAAACTCTAA)” here?
Answer: 0.554

Question: For “CAAAACTCTTGGGTTCTAACCTGTTGCTT (site TCCCCGGCTCC)”, which “recombinant barcode read abundance (log10)” value is on record?
Answer: 0.0614

Question: For “CAAAAGGCTTGGGTTCTAACCTGTTGCAG (site CAAAAGGCTCT)”, which “recombinant barcode read abundance (log10)” value is on record?
Answer: 1.7

Question: Which “recombinant barcode read abundance (log10)” value does the source give for “CAAAAGGCTTGGGTTCTAACCTGTTGCAG (site CAAAGGGCTCT)” here?
Answer: 0.386

Question: Which “recombinant barcode read abundance (log10)” value does the source give for “CAAAATTCTTGGGTTCTAACCTGTTGCGT (site CAAAATTCTAC)” here?
Answer: 0.703

Question: Which “recombinant barcode read abundance (log10)” value does the source give for “CAAAATTCTTGGGTTCTAACCTGTTGCGT (site CAGAATACTAC)” here?
Answer: 0.0891

Question: With “CAAACAGCTTGGGTTCTAACCTGTTGCCT (site CAAACAACTAG)” as the sequence, how does the “recombinant barcode read abundance (log10)” value read?
Answer: 0.0742

Question: With “CAAACAGCTTGGGTTCTAACCTGTTGCCT (site CAAACACCTAG)” as the sequence, how does the “recombinant barcode read abundance (log10)” value read?
Answer: 0.634

Question: For “CAAACAGCTTGGGTTCTAACCTGTTGCCT (site CAAACAGCTAG)”, which “recombinant barcode read abundance (log10)” value is on record?
Answer: 0.824

Question: For “CAAACAGCTTGGGTTCTAACCTGTTGCCT (site CAAACATCTAG)”, which “recombinant barcode read abundance (log10)” value is on record?
Answer: 0.113

Question: Which “recombinant barcode read abundance (log10)” value does the source give for “CAAACCGCTTGGGTTCTAACCTGTTGCCT (site CAAACCGCTAG)” here?
Answer: 1.14

Question: Which “recombinant barcode read abundance (log10)” value does the source give for “CAAACCGCTTGGGTTCTAACCTGTTGCCT (site CCAACCGCTAG)” here?
Answer: 0.0884

Question: With “CAAACCGCTTGGGTTCTAACCTGTTGCCT (site CGAACCGCTAG)” as the sequence, how does the “recombinant barcode read abundance (log10)” value read?
Answer: 0.356

Question: With “CAAACCGCTTGGGTTCTAACCTGTTGCCT (site CTAACCGCTAG)” as the sequence, how does the “recombinant barcode read abundance (log10)” value read?
Answer: 0.117

Question: Which “recombinant barcode read abundance (log10)” value does the source give for “CAAACTCCTTGGGTTCTAACCTGTTGCGT (site CAAACTCCTAA)” here?
Answer: 0.124

Question: Which “recombinant barcode read abundance (log10)” value does the source give for “CAAACTCCTTGGGTTCTAACCTGTTGCGT (site CAAACTCCTAC)” here?
Answer: 0.951

Question: With “CAAACTCCTTGGGTTCTAACCTGTTGCGT (site CAAACTCCTAG)” as the sequence, how does the “recombinant barcode read abundance (log10)” value read?
Answer: 0.0424

Question: For “CAAACTCCTTGGGTTCTAACCTGTTGCGT (site CAAACTCCTAT)”, which “recombinant barcode read abundance (log10)” value is on record?
Answer: 0.0528

Question: Which “recombinant barcode read abundance (log10)” value does the source give for “CAAAGATCTTGGGTTCTAACCTGTTGCCT (site CAAAGATCTAG)” here?
Answer: 0.821

Question: For “CAAAGATCTTGGGTTCTAACCTGTTGCCT (site CCAAGATCTAG)”, which “recombinant barcode read abundance (log10)” value is on record?
Answer: 0

Question: Which “recombinant barcode read abundance (log10)” value does the source give for “CAAAGATCTTGGGTTCTAACCTGTTGCCT (site CGAAGATCTAG)” here?
Answer: 0.023

Question: For “CAAAGATCTTGGGTTCTAACCTGTTGCCT (site CTAAGATCTAG)”, which “recombinant barcode read abundance (log10)” value is on record?
Answer: 0.165

Question: For “CAAATAACTTGGGTTCTAACCTGTTGCCT (site CAAATAACTAG)”, which “recombinant barcode read abundance (log10)” value is on record?
Answer: 0.461

Question: With “CAAATAACTTGGGTTCTAACCTGTTGCCT (site CAGCTAACTAG)” as the sequence, how does the “recombinant barcode read abundance (log10)” value read?
Answer: 0.134

Question: With “CAAATCCCTTGGGTTCTAACCTGTTGCGT (site ATCGAGTCTTG)” as the sequence, how does the “recombinant barcode read abundance (log10)” value read?
Answer: 0.174

Question: Which “recombinant barcode read abundance (log10)” value does the source give for “CAAATCCCTTGGGTTCTAACCTGTTGCGT (site CAAATCCCTAC)” here?
Answer: 2.08

Question: For “CAACACTCTTGGGTTCTAACCTGTTGCCT (site CAACACTCTAG)”, which “recombinant barcode read abundance (log10)” value is on record?
Answer: 2.43

Question: For “CAACACTCTTGGGTTCTAACCTGTTGCCT (site CCACACTCTAG)”, which “recombinant barcode read abundance (log10)” value is on record?
Answer: 0.452

Question: For “CAACACTCTTGGGTTCTAACCTGTTGCCT (site CGACACTCTAG)”, which “recombinant barcode read abundance (log10)” value is on record?
Answer: 0.102

Question: For “CAACACTCTTGGGTTCTAACCTGTTGCCT (site CTACACTCTAG)”, which “recombinant barcode read abundance (log10)” value is on record?
Answer: 0.446

Question: Which “recombinant barcode read abundance (log10)” value does the source give for “CAACCGTCTTGGGTTCTAACCTGTTGCCT (site CAACCGACTAG)” here?
Answer: 0

Question: Which “recombinant barcode read abundance (log10)” value does the source give for “CAACCGTCTTGGGTTCTAACCTGTTGCCT (site CAACCGCCTAG)” here?
Answer: 0.439

Question: Which “recombinant barcode read abundance (log10)” value does the source give for “CAACCGTCTTGGGTTCTAACCTGTTGCCT (site CAACCGGCTAG)” here?
Answer: 0.0528

Question: With “CAACCGTCTTGGGTTCTAACCTGTTGCCT (site CAACCGTCTAG)” as the sequence, how does the “recombinant barcode read abundance (log10)” value read?
Answer: 1.33

Question: For “CAACGACCTTGGGTTCTAACCTGTTGCCT (site AAACGACCTAG)”, which “recombinant barcode read abundance (log10)” value is on record?
Answer: 0.172

Question: Which “recombinant barcode read abundance (log10)” value does the source give for “CAACGACCTTGGGTTCTAACCTGTTGCCT (site CAACGACCTAG)” here?
Answer: 1.75

Question: For “CAACGACCTTGGGTTCTAACCTGTTGCCT (site GAACGACCTAG)”, which “recombinant barcode read abundance (log10)” value is on record?
Answer: 0.171

Question: Which “recombinant barcode read abundance (log10)” value does the source give for “CAACGACCTTGGGTTCTAACCTGTTGCCT (site TAACGACCTAG)” here?
Answer: 0.166

Question: Which “recombinant barcode read abundance (log10)” value does the source give for “CAACGAGCTTGGGTTCTAACCTGTTGCCG (site CAACGAGCTCG)” here?
Answer: 0.506

Question: For “CAACGAGCTTGGGTTCTAACCTGTTGCCG (site CACCGAGCTCG)”, which “recombinant barcode read abundance (log10)” value is on record?
Answer: 0.186

Question: With “CAACGAGCTTGGGTTCTAACCTGTTGCCG (site CAGCGAGCTCG)” as the sequence, how does the “recombinant barcode read abundance (log10)” value read?
Answer: 0

Question: For “CAACGAGCTTGGGTTCTAACCTGTTGCCG (site CATCGAGCTCG)”, which “recombinant barcode read abundance (log10)” value is on record?
Answer: 0.218

Question: Which “recombinant barcode read abundance (log10)” value does the source give for “CAACGGCCTTGGGTTCTAACCTGTTGCCT (site CAAAGGCCTAG)” here?
Answer: 0

Question: Which “recombinant barcode read abundance (log10)” value does the source give for “CAACGGCCTTGGGTTCTAACCTGTTGCCT (site CAACGGCCTAG)” here?
Answer: 0.796

Question: With “CAACGGCCTTGGGTTCTAACCTGTTGCCT (site CAAGGGCCTAG)” as the sequence, how does the “recombinant barcode read abundance (log10)” value read?
Answer: 0.55

Question: Which “recombinant barcode read abundance (log10)” value does the source give for “CAACGGCCTTGGGTTCTAACCTGTTGCCT (site CAATGGCCTAG)” here?
Answer: 0.0566

Question: Which “recombinant barcode read abundance (log10)” value does the source give for “CAACTAGCTTGGGTTCTAACCTGTTGCAT (site CAACTAGCTAT)” here?
Answer: 0.691

Question: With “CAACTAGCTTGGGTTCTAACCTGTTGCAT (site TTGTACACTGA)” as the sequence, how does the “recombinant barcode read abundance (log10)” value read?
Answer: 0.028

Question: For “CAAGCACCTTGGGTTCTAACCTGTTGCTT (site CAAACACCTAA)”, which “recombinant barcode read abundance (log10)” value is on record?
Answer: 0.121

Question: With “CAAGCACCTTGGGTTCTAACCTGTTGCTT (site CAACCACCTAA)” as the sequence, how does the “recombinant barcode read abundance (log10)” value read?
Answer: 0.0852

Question: Which “recombinant barcode read abundance (log10)” value does the source give for “CAAGCACCTTGGGTTCTAACCTGTTGCTT (site CAAGCACCTAA)” here?
Answer: 0.187

Question: With “CAAGCACCTTGGGTTCTAACCTGTTGCTT (site CAATCACCTAA)” as the sequence, how does the “recombinant barcode read abundance (log10)” value read?
Answer: 0.338

Question: Which “recombinant barcode read abundance (log10)” value does the source give for “CAAGGTCCTTGGGTTCTAACCTGTTGCGG (site CAAGGTCCTCC)” here?
Answer: 2.68

Question: With “CAAGGTCCTTGGGTTCTAACCTGTTGCGG (site GTTACCTCTAG)” as the sequence, how does the “recombinant barcode read abundance (log10)” value read?
Answer: 0.194

Question: With “CAAGTGGCTTGGGTTCTAACCTGTTGCCT (site CAAGTAGCTAG)” as the sequence, how does the “recombinant barcode read abundance (log10)” value read?
Answer: 0.417

Question: Which “recombinant barcode read abundance (log10)” value does the source give for “CAAGTGGCTTGGGTTCTAACCTGTTGCCT (site CAAGTCGCTAG)” here?
Answer: 0.0501
